# Assay results from US20230026869A1, “CRYSTAL FORM OF NUCLEOPROTEIN INHIBITOR AND USE THEREOF” (CHIA TAI TIANQING PHARMACEUTICAL GROUP CO., LTD., priority 2019, published 2023).
# Columns and labels:
# [1] = Metabolic stability in liver microsomes of SD rats; type: in vitro ADME; settings: rat
# Experimental: (§1) Objective: The metabolic stability of the tested compound of formula (I) in liver microsomes of rats, beagle dogs and cynomolgus monkeys was determined. […]
# [2] = Metabolic stability in liver microsomes of beagle dogs; type: in vitro ADME; settings: dog
# Experimental: as §1
# CYP2D6 = molecular target: T1, CYP2D6 (Homo sapiens, UniProt P10635); test: Inhibition of human liver microsomal cytochrome P450 isoenzyme CYP2D6; type: in vitro ADME; settings: human liver microsomes
# T1 construct: from tissue; host or cells: human liver microsomes
# Experimental: Objective: The inhibitory effect of the test compound on the activity of human liver microsomal cytochrome P450 isoenzymes (CYP1A2, CYP2C9, CYP2C19, CYP2D6 and CYP3A4) was determined. […]
# [3] = Metabolic stability in liver microsomes of cynomolgus monkeys; type: in vitro ADME; settings: cynomolgus monkey
# Experimental: as §1
# [4] = Liver-to-blood ratio in Balb/c mice orally administered with the test compound; type: in vivo; settings: Balb/c female mice, oral administration, 3 mg/kg
# Experimental: Experiment on the Liver-to-Blood Ratio in Balb/c Mice Orally Administered with the Test Compound The compound of formula (I) was mixed with an aqueous solution containing […] polyethylene glycol-15 hydroxystearate, and the mixture was vortexed and sonicated to prepare a 0.3 mg/mL clear solution for later use. Balb/c female mice aged 7 to 10 weeks were orally administered with the candidate compound solution at a dose of 3 mg/kg. Whole blood at a certain time point was collected and plasma was prepared. Liver tissues at the corresponding time point were collected to prepare a tissue homogenate. Drug concentration was analyzed by LC-MS/MS and pharmacokinetic parameters were calculated with Phoenix WinNonlin software.
# T1 sequence (P10635 whole entry): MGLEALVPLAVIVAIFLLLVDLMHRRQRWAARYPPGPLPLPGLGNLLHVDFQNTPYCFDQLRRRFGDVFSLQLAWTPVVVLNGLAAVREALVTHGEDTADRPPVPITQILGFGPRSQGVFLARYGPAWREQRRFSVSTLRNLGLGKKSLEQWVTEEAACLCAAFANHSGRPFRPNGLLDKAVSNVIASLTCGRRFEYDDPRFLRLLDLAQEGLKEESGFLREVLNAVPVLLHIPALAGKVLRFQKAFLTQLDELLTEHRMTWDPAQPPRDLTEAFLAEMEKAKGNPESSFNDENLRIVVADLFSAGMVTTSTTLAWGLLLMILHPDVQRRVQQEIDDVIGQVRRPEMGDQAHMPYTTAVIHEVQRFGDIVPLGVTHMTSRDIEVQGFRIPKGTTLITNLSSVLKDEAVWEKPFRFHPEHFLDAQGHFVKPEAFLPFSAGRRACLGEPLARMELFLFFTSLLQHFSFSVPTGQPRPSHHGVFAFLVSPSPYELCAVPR
smiles,measurement,setting,value
CC1(NC(=O)C(=O)c2c(Cl)c(C(=O)Nc3cc(F)c(F)c(F)c3)c3n2CCC3)CCC(CC(=O)O)CC1 (stereo not shown) [Compound of formula (I)],microsomal CLint at 1 μM,"[1]; SD, microsomes",< 9.6 µL/min/mg
same,CLint scaled at 1 μM,[1]; SD rats liver microsomes,< 17.3 mL/min/kg
same,half-life at 1 μM,"[1]; SD rats liver microsomes, 1 μM compound, 0.5 mg/mL",> 2.42 h
same,microsomal CLint at 1 μM,"[2]; beagle, microsomes",< 9.6 µL/min/mg
same,CLint scaled at 1 μM,[2]; Beagle dogs liver microsomes,< 13.8 mL/min/kg
same,half-life at 1 μM,"[2]; Beagle dogs liver microsomes, 1 μM compound, 0.5 mg/mL",> 2.42 h
same,IC50,CYP2D6,> 50 µM
same,microsomal CLint at 1 μM,[3]; microsomes,< 9.6 µL/min/mg
same,CLint scaled at 1 μM,[3]; Cynomolgus monkeys liver microsomes,< 13 mL/min/kg
same,half-life at 1 μM,"[3]; Cynomolgus monkeys liver microsomes, 1 μM compound, 0.5 mg/mL",> 2.42 h
same,AUC0-last,[4]; Liver,86036 nmol·h/kg
same,Kp,"[4]; mouse, liver / plasma, read-out: AUC ratio (L/P) Liver/plasma exposure ratio",24.7
same,AUC(0-t),"[4]; mouse, Plasma",3.48 µM·h
